Legend:
5-HT2C receptors = test system: 5-HT2C receptors; design: method as in PMID 25237120, PMID 23583454; conditions: cited from earlier work
healthy poly-drug users [1] = test: Physiological effects (non-invasive SBP, DBP, HR, cutaneous temperature) after oral self-administration; format: in vivo, humans; design: key to HR Dunnet’s Test: “a” (times 0–1 h); “b” (times 0–2 h); “c” (times 0–4 h); not significant (NS)
Source text: (§1) The study was designed as a non-controlled prospective observational study in a naturalistic setting with methylone and MDMA self-administration. The methodology, including procedures and evaluations, coincides with previous observational–naturalistic studies aimed at evaluating the acute effects of other NPS [38, 39, 40]. Six subjects (5 M, 1 F) self-administered MDMA and 8 subjects (5 M, 3 F) self-administered methylone. Each subject participated only in one session. Participants brought their own substance obtained from an unknown source, which was tested by Energy Control, a harm reduction organization that provides a drug checking service to drug users. Pills containing methylone and MDMA were analyzed by gas chromatography associated with mass spectrometry (GC/MS), a technique that traces the presence of the most frequent drugs of abuse, such as MDMA, cocaine, heroin, amphetamine and methamphetamine, LSD, and multiple NPS (methylone, mephedrone, and other synthetic cathinones, synthetic cannabinoids, tryptamines, among others).
(§2) In both sessions, participants selected the dose of methylone or MDMA according to their previous drug use experience. Doses of methylone could be selected from a range (75–300 mg) that was previously defined according to the consulted literature. The WHO Expert Committee on Drug Dependence (Thirty-Sixth Meeting, Geneva, Switzerland, 16–20 June 2014) established that 60 mg of methylone was the threshold dose and doses over 250 mg were often related to very strong activity. Some users have reported uses of 300 mg of methylone as a common dose [www.erowid.org] (accessed on 15 June 2021). The mean of the selected doses of MDMA was 87.50 mg (3 subjects ingested 75 mg (2 males and 1 female), 3 males 100 mg). In the other study session, methylone doses ranged from 100 to 300 mg, with a mean of 187.50 mg. Based on their dose selection, 1 male ingested 100 mg, 2 subjects 150 mg (1 male and 1 female), 4 subjects 200 mg (2 males and 2 females), and 1 male 300 mg.
(§3) The sessions were conducted in a naturalistic setting. Participants were allowed to talk, read, listen to music, or play games, except during the evaluation times. However, they were asked to refrain from talking about the effects of the substance. All the subjects were evaluated simultaneously at baseline, 1, 2, and 4 h after administration of methylone or MDMA, which occurred approximately at 16:00 h. At each time point, evaluations were followed in a specific order: physiological effects, oral fluid collection, and subjective effects scales and questionnaires.
Non-invasive systolic blood pressure (SBP), diastolic blood pressure (DBP), and heart rate (HR) were measured with subjects in the sitting position, using an automatic Omron monitor at baseline, 1, 2, and 4 h (h) after self-administration. Cutaneous temperature was determined at the same time points.
Vital signs (SBP, DBP, and HR) and subjective effects (VAS, ARCI, and VESSPA-SSE) were baseline-adjusted. Maximum effects and the time in which maximum effects appeared were determined, and the area under the curve (AUC0–4h) was calculated with the trapezoidal rule.
Thirdly, to find possible significant changes from baseline, a Dunnett multiple comparison test was conducted to compare each time point with baseline in both drug conditions (0–1 h, 0–2 h, 0–4 h).

users = test system: users; design: method as in earlier work; conditions: cited from earlier work
healthy poly-drug users [2] = test: Subjective effects, visual analogue scales (VAS); format: in vivo, humans; design: key to VAS stimulated Dunnet’s Test / VAS change in lights Dunnet’s Test / VAS different body feeling Dunnet’s Test / VAS different surrounding Dunnet’s Test / VAS dizziness Dunnet’s Test / VAS headache Dunnet’s Test / VAS face flushing Dunnet’s Test: “a” (times 0–1 h); “b” (times 0–2 h); “c” (times 0–4 h); not significant (NS)
Source text: as §1, §2, §3
Subjective effects were evaluated at baseline, 1, 2, and 4 h after self-administration using visual analogue scales (VAS), the Addiction Research Center Inventory (ARCI), and the Evaluation of Subjective Effects of Substances with Abuse Potential questionnaire (VESSPA-SSE).
Visual analogue scales (100 mm, from “not at all” to “extremely”) contained 30 items that subjects were asked to rate, such as: intensity, stimulated, high, good effects, liking, happiness, drunkenness, changes in colors, changes in shapes, changes in lights, hallucinations (seeing lights or spots), hallucinations (seeing of animals), changes in hearing, hallucinations (hearing sounds or voices), different or changed body feeling, unreal body feeling, changes in distances, different surroundings, unreal surroundings, confusion, fear, depression or sadness, drowsiness, dizziness, bad effects, headache, sickness, vertigo, shortness of breath, and face flushing.
Vital signs (SBP, DBP, and HR) and subjective effects (VAS, ARCI, and VESSPA-SSE) were baseline-adjusted. Maximum effects and the time in which maximum effects appeared were determined, and the area under the curve (AUC0–4h) was calculated with the trapezoidal rule. […]

[3] = oral, methylone 100–300 mg n=8, MDMA 75–100 mg n=6, baseline-adjusted, mean ± SD
[4] = time points significantly different from baseline
[5] = oral administration, user reports

Q: For `CNC(C)C(=O)c1ccc2c(c1)OCO2` (centres unmarked) [Methylone, 3,4-methylenedioxymethcathinone], which “Activity at 5-HT2C receptors” value (5-HT2C receptors) is on record?
A: The value was “weak antagonist effects”.

Q: What about the “DBP AUC0–4h” value (healthy poly-drug users [1]; [3]) of the same compound?
A: The value was 55.19 ± 31.02.

Q: What about the “DBP Emax” value (healthy poly-drug users [1]; [3]) of the same compound?
A: The value was 19.63 ± 13.96 mmHg.

Q: What about the “HR AUC0–4h” value (healthy poly-drug users [1]; [3]) of the same compound?
A: Its value is 52.06 ± 39.16.

Q: And the “HR Emax” value (healthy poly-drug users [1]; [3])?
A: The value was 20.50 ± 19.78 bpm.

Q: And the “SBP AUC0–4h” value (healthy poly-drug users [1]; [3])?
A: The value was 80.81 ± 42.89.

Q: What about the “SBP Emax” value (healthy poly-drug users [1]; [3]) of the same compound?
A: Its value is 31.25 ± 14.77 mmHg.

Q: And the “Variation in cutaneous temperature” value (healthy poly-drug users [1]; oral, methylone 100–300 mg, MDMA 75–100 mg, versus baseline, 0–4 h)?
A: Its value is “Neither of the substances caused significant variations”.

Q: What about the “DBP Dunnet’s Test” value (healthy poly-drug users [1]; [4]) of the same compound?
A: Its value is “a, b, c”.

Q: What about the “HR Dunnet’s Test” value (healthy poly-drug users [1]; [4]) of the same compound?
A: The value was “a”.

Q: And the “SBP Dunnet’s Test” value (healthy poly-drug users [1]; [4])?
A: The value was “a, b, c”.

Q: And the Threshold dose (users; WHO Expert Committee on Drug Dependence)?
A: The Threshold dose was 60 mg.

Q: What about the “Onset of effects after administration” value (users; [5]) of the same compound?
A: Its value is 15 to 60 min.

Q: What about the “Time of peak effects” value (users; [5]) of the same compound?
A: Its value is 60 to 90 min.

Q: What about the “Total duration of effects” value (users; [5]) of the same compound?
A: Its value is 3 to 5 h.

Q: What about the “Time at which subjective effects in general reached maximum values” (healthy poly-drug users [2]; oral, VAS, ARCI, VESSPA-SSE overall) of the same compound?
A: The value was 2 h.

Q: What about the “VAS change in lights AUC0–4h” value (healthy poly-drug users [2]; [3]) of the same compound?
A: Its value is 10.88 ± 11.85.

Q: And the “VAS change in lights Emax” value (healthy poly-drug users [2]; [3])?
A: The value was 4.88 ± 4.82 mm.

Q: What about the “VAS content AUC0–4h” value (healthy poly-drug users [2]; [3]) of the same compound?
A: Its value is 80.06 ± 82.59.

Q: What about the “VAS content Emax” value (healthy poly-drug users [2]; [3]) of the same compound?
A: Its value is 35.25 ± 30.38 mm.

Q: What about the “VAS different body feeling AUC0–4h” value (healthy poly-drug users [2]; [3]) of the same compound?
A: Its value is 44.13 ± 43.86.

Q: And the “VAS different body feeling Emax” value (healthy poly-drug users [2]; [3])?
A: Its value is 22.25 ± 20.60 mm.

Q: What about the “VAS different surrounding AUC0–4h” value (healthy poly-drug users [2]; [3]) of the same compound?
A: Its value is 5.69 ± 10.39.

Q: What about the “VAS different surrounding Emax” value (healthy poly-drug users [2]; [3]) of the same compound?
A: Its value is 4.38 ± 7.50 mm.

Q: What about the “VAS dizziness AUC0–4h” value (healthy poly-drug users [2]; [3]) of the same compound?
A: Its value is 2.63 ± 3.02.

Q: And the “VAS dizziness Emax” value (healthy poly-drug users [2]; [3])?
A: The value was 2.13 ± 2.53 mm.

Q: And the “VAS face flushing AUC0–4h” value (healthy poly-drug users [2]; [3])?
A: The value was 64.50 ± 56.75.

Q: What about the “VAS face flushing Emax” value (healthy poly-drug users [2]; [3]) of the same compound?
A: The value was 31.25 ± 21.91 mm.

Q: What about the “VAS good effects AUC0–4h” value (healthy poly-drug users [2]; [3]) of the same compound?
A: Its value is 74.06 ± 67.08.

Q: And the “VAS good effects Emax” value (healthy poly-drug users [2]; [3])?
A: Its value is 35.63 ± 30.63 mm.

Q: What about the “VAS headache AUC0–4h” value (healthy poly-drug users [2]; [3]) of the same compound?
A: Its value is 23.63 ± 28.94.

Q: And the “VAS headache Emax” value (healthy poly-drug users [2]; [3])?
A: Its value is 20.25 ± 28.93 mm.

Q: What about the “VAS high AUC0–4h” value (healthy poly-drug users [2]; [3]) of the same compound?
A: The value was 55.06 ± 53.54.

Q: And the “VAS high Emax” value (healthy poly-drug users [2]; [3])?
A: Its value is 24.0 ± 21.28 mm.

Q: And the “VAS intensity AUC0–4h” value (healthy poly-drug users [2]; [3])?
A: Its value is 45.88 ± 43.66.

Q: And the “VAS intensity Emax” value (healthy poly-drug users [2]; [3])?
A: Its value is 20.0 ± 16.48 mm.

Q: What about the “VAS stimulated AUC0–4h” value (healthy poly-drug users [2]; [3]) of the same compound?
A: Its value is 50.56 ± 47.38.

Q: And the “VAS stimulated Emax” value (healthy poly-drug users [2]; [3])?
A: Its value is 22.50 ± 18.81 mm.

Q: What about the “VAS change in lights Tmax” value (healthy poly-drug users [2]; oral, methylone 100–300 mg n=8, MDMA 75–100 mg n=6, median (min–max)) of the same compound?
A: Its value is 1.0 (0.0–2.0) h.

Q: And the “VAS change in lights Dunnet’s Test” value (healthy poly-drug users [2]; [4])?
A: Its value is “a, b”.

Q: What about the “VAS content Dunnet’s Test” value (healthy poly-drug users [2]; [4]) of the same compound?
A: Its value is “a, b”.

Q: And the “VAS different body feeling Dunnet’s Test” value (healthy poly-drug users [2]; [4])?
A: The value was “NS”.

Q: And the “VAS different surrounding Dunnet’s Test” value (healthy poly-drug users [2]; [4])?
A: The value was “NS”.

Q: And the “VAS dizziness Dunnet’s Test” value (healthy poly-drug users [2]; [4])?
A: Its value is “a”.

Q: What about the “VAS face flushing Dunnet’s Test” value (healthy poly-drug users [2]; [4]) of the same compound?
A: Its value is “b”.

Q: What about the “VAS good effects Dunnet’s Test” value (healthy poly-drug users [2]; [4]) of the same compound?
A: The value was “a, b”.

Q: What about the “VAS headache Dunnet’s Test” value (healthy poly-drug users [2]; [4]) of the same compound?
A: The value was “c”.

Q: What about the “VAS high Dunnet’s Test” value (healthy poly-drug users [2]; [4]) of the same compound?
A: Its value is “a, b”.

Q: What about the “VAS intensity Dunnet’s Test” value (healthy poly-drug users [2]; [4]) of the same compound?
A: The value was “a, b”.

Q: And the “VAS stimulated Dunnet’s Test” value (healthy poly-drug users [2]; [4])?
A: The value was “b”.
